Each compound was assayed against T1, human EDG-2 (Homo sapiens, UniProt Q92633) (assay: Inhibitory activity on LPA-induced elevation of intracellular Ca2+ level). Details: 50% inhibition of elevation of intracellular Ca2+ level by LPA, human EDG-2/HepG2 cells, fura-2.
T1 construct: cDNA of the cloned human EDG-2 was introduced into pEFneo, which is an animal expression vector; expressed in transfected cells; host or cells: HepG2
Format: cell-based
Source text: The human EDG-2 expression plasmid was introduced into HepG2 cells by electroporation. After the introduction, culturing was continued while exchanging selective media every 3 to 4 days, thereby obtaining an expressed colony. Regarding these cells, Ca-influx and cell-proliferation by LPA, level of [^3H] LPA binding and the like were inspected to select a cell line which highly expresses human EDG-2 (human EDG-2/HepG2).
Human EDG-2/HepG2 cells were washed and then suspended in 0.1% BSA (bovine serum albumin)-containing HEPES buffer. A fluorescent indicator, fura-2/AM (Wako Pure Chemical Industries, Ltd.), was added, and the mixture was shaken at room temperature for 45 minutes so that the indicator is included in the cell. Cells were washed again and then suspended in 0.1% BSA-containing HEPES buffer, and intracellular Ca^2+ level was assayed using FDSS2000 (Hamamatsu Photonics). […] Each test compound was added to the cell suspension followed by the addition of LPA, thereby examining the inhibitory activity of the test compound on the function of LPA for elevating the intracellular Ca level. […] The lower the IC50 value, the higher the antagonistic activity on the LPA receptor.

T1 sequence (Q92633 whole entry): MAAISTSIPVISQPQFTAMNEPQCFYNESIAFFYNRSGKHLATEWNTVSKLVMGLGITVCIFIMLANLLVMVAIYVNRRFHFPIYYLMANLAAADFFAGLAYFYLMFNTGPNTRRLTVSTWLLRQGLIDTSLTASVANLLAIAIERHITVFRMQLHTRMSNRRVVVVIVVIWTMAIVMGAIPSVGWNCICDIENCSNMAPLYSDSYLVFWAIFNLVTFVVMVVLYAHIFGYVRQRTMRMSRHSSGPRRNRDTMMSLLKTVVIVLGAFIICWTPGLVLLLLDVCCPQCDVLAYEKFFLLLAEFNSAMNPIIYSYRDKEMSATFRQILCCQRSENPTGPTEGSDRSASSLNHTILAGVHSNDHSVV

Structure (SMILES)	IC50 [µM]
Cc1noc(-c2ccccc2F)c1NC(=O)OC(C)c1ccccc1 (stereo not shown) [Compound 42, 1-Phenylethyl N-[5-(2-fluorophenyl)-3-methyl-4-isoxazolyl]carbamate]	10
Cc1onc(-c2ccccc2)c1NC(=O)O[C@@H](C)c1ccccc1 [Compound 10, (1S)-1-Phenylethyl N-(5-methyl-3-phenyl-4-isoxazolyl)carbamate]	≥ 100
Cc1onc(-c2ccccc2)c1NC(=O)O[C@H](C)c1ccccc1 [Compound 9, (1R)-1-Phenylethyl N-(5-methyl-3-phenyl-4-isoxazolyl)carbamate]	10 to 30
CC(OC(=O)Nc1c(Cl)nsc1-c1ccccc1Cl)c1ccccc1 (stereo not shown) [Compound 25, 1-Phenylethyl N-[3-chloro-5-(2-chlorophenyl)-4-isothiazolyl]carbamate]	30 to 100
Cc1onc(-c2cccc(Br)c2)c1NC(=O)OC(C)c1ccccc1Cl (stereo not shown) [Compound 13, 1-(2-Chlorophenyl)ethyl N-[3-(3-bromophenyl)-5-methyl-4-isoxazolyl]carbamate]	30
Cc1onc(-c2ccccc2)c1NC(=O)OCc1ccccc1 [Compound 2, Benzyl N-(5-methyl-3-phenyl-4-isoxazolyl)carbamate]	30 to 100
COCc1noc(-c2ccccc2)c1NC(=O)OC(C)c1ccccc1Cl (stereo not shown) [Compound 78, 1-(2-Chlorophenyl)ethyl N-[3-(methoxymethyl)-5-phenyl-4-isoxazolyl]carbamate]	30
Cc1onc(-c2ccc([N+](=O)[O-])cc2)c1NC(=O)OC(C)c1ccccc1Cl (stereo not shown) [Compound 6, 1-(2-Chlorophenyl)ethyl N-[5-methyl-3-(4-nitrophenyl)-4-isoxazolyl]carbamate]	10
Cc1noc(-c2ccc(COCc3ccoc3)cc2)c1NC(=O)OC(C)c1ccccc1Cl (stereo not shown) [Compound 85, 1-(2-Chlorophenyl)ethyl N-(5-[4-[(3-furylmethoxy)methyl]phenyl]-3-methyl-4-isoxazolyl)carbamate]	3 to 10
Cc1ccc(-c2noc(C)c2NC(=O)OC(C)c2ccccc2Cl)cc1 (stereo not shown) [Compound 5, 1-(2-Chlorophenyl)ethyl N-[5-methyl-3-(4-methylphenyl)-4-isoxazolyl]carbamate]	10 to 30
Cc1noc(-c2ccc(F)cc2)c1NC(=O)OC(C)c1ccccc1 (stereo not shown) [Compound 40, 1-Phenylethyl N-[5-(4-fluorophenyl)-3-methyl-4-isoxazolyl]carbamate]	10
COc1ccc(-c2onc(C)c2NC(=O)OC(C)c2ccccc2Cl)cc1 (stereo not shown) [Compound 50, 1-(2-Chlorophenyl)ethyl N-[5-(4-methoxyphenyl)-3-methyl-4-isoxazolyl]carbamate]	10 to 30
Cc1noc(-c2cccs2)c1NC(=O)OC(C)c1ccccc1 (stereo not shown) [Compound 56, 1-Phenylethyl N-[3-methyl-5-(2-thienyl)-4-isoxazolyl]carbamate]	3 to 10
Cc1noc(-c2ccc(OC(F)(F)F)cc2)c1NC(=O)OC(C)c1ccccc1Cl (stereo not shown) [Compound 36, 1-(2-Chlorophenyl)ethyl N-[5-[4-(trifluoromethoxy)phenyl]-3-methyl-4-isoxazolyl]carbamate]	3 to 10
Cc1onc(-c2ccccc2)c1NC(=O)OCCC(C)C [Compound 100, Isopentyl N-(5-methyl-3-phenyl-4-isoxazolyl)carbamate]	30 to 100
Cc1onc(-c2ccccc2)c1NC(=O)OC1CCc2ccccc2C1 (stereo not shown) [Compound 98, 1,2,3,4-Tetrahydro-2-naphthalenyl N-(5-methyl-3-phenyl-4-isoxazolyl)carbamate]	30 to 100
Cc1onc(-c2ccc(OC(F)(F)F)cc2)c1NC(=O)OC(C)c1ccccc1Cl (stereo not shown) [Compound 11, 1-(2-Chlorophenyl)ethyl N-[5-methyl-3-[4-(trifluoromethoxy)phenyl]-4-isoxazolyl]carbamate]	10 to 30
Cc1ccc(-c2onc(C)c2NC(=O)OC(C)c2ccccc2F)cc1 (stereo not shown) [Compound 49, 1-(2-Fluorophenyl)ethyl N-[3-methyl-5-(4-methylphenyl)-4-isoxazolyl]carbamate]	10 to 30
Cc1noc(-c2ccc(CCl)cc2)c1NC(=O)OC(C)c1ccccc1F (stereo not shown) [Compound 155, 1-(2-Fluorophenyl)ethyl N-{5-[4-(chloromethyl)phenyl]-3-methyl-4-isoxazolyl}carbamate]	3 to 10
CCCCC(C)OC(=O)Nc1c(-c2ccccc2)noc1C (stereo not shown) [Compound 101, 1-Methylpentyl N-(5-methyl-3-phenyl-4-isoxazolyl)carbamate]	30 to 100
CCCCc1ccc(-c2onc(C)c2NC(=O)OC(C)c2ccccc2)cc1 (stereo not shown) [Compound 64, 1-Phenylethyl N-[5-(4-butylphenyl)-3-methyl-4-isoxazolyl]carbamate]	10 to 30
Cc1noc(-c2cccc(F)c2)c1NC(=O)OC(C)c1ccccc1Cl (stereo not shown) [Compound 30, 1-(2-Chlorophenyl)ethyl N-[5-(3-fluorophenyl)-3-methyl-4-isoxazolyl]carbamate]	3 to 10
Cc1onc(-c2ccccc2)c1NC(=O)OC(C)c1ccccc1F (stereo not shown) [Compound 19, 1-(2-Fluorophenyl)ethyl N-(5-methyl-3-phenyl-4-isoxazolyl)carbamate]	3 to 10
Cc1noc(-c2ccc(CNCCc3ccccn3)cc2)c1NC(=O)OC(C)c1ccccc1Cl (stereo not shown) [Compound 90, 1-(2-Chlorophenyl)ethyl N-(3-methyl-5-[4-[([2-(2-pyridyl)ethyl]amino)methyl]phenyl]-4-isoxazolyl)carbamate]	10
Cc1noc(-c2cccc(Cl)c2)c1NC(=O)OC(C)c1ccccc1Cl (stereo not shown) [Compound 39, 1-(2-Chlorophenyl)ethyl N-[5-(3-chlorophenyl)-3-methyl-4-isoxazolyl]carbamate]	10

Results, then the compound that gave them:

IC50 [µM]	Structure (SMILES)
3	Cc1noc(-c2cccc(CSCCO)c2)c1NC(=O)OC(C)c1ccccc1Cl (stereo not shown) [Compound 131, 1-(2-Chlorophenyl)ethyl N-[5-(3-{[(2-hydroxyethyl)sulfanyl]methyl}phenyl)-3-methyl-4-isoxazolyl]carbamate]
3 to 10	Cc1noc(-c2ccsc2)c1NC(=O)OC(C)c1ccccc1Cl (stereo not shown) [Compound 75, 1-(2-Chlorophenyl)ethyl N-[3-methyl-5-(3-thienyl)-4-isoxazolyl]carbamate]
1 to 3	Cc1noc(-c2ccc(CCl)cc2)c1NC(=O)OC(C)c1ccccc1Cl (stereo not shown) [Compound 74, 1-(2-Chlorophenyl)ethyl N-[5-[4-(chloromethyl)phenyl]-3-methyl-4-isoxazolyl]carbamate]
3 to 10	Cc1noc(-c2ccc(CN3CCOCC3)cc2)c1NC(=O)OC(C)c1ccccc1Cl (stereo not shown) [Compound 88, 1-(2-Chlorophenyl)ethyl N-[3-methyl-5-[4-(morpholinomethyl)phenyl]-4-isoxazolyl]carbamate]
3 to 10	Cc1noc(-c2ccc(C#N)cc2)c1NC(=O)OC(C)c1ccccc1 (stereo not shown) [Compound 46, 1-Phenylethyl N-[5-(4-cyanophenyl)-3-methyl-4-isoxazolyl]carbamate]
3	Cc1onc(-c2cccc(F)c2)c1NC(=O)OC(C)c1ccccc1Cl (stereo not shown) [Compound 21, 1-(2-Chlorophenyl)ethyl N-[3-(3-fluorophenyl)-5-methyl-4-isoxazolyl]carbamate]
3 to 10	Cc1ccc(-c2onc(C)c2NC(=O)OC(C)c2ccccc2Cl)s1 (stereo not shown) [Compound 69, 1-(2-Chlorophenyl)ethyl N-[3-methyl-5-(5-methyl-2-thienyl)-4-isoxazolyl]carbamate]
3 to 10	Cc1noc(-c2ccc(OC(F)(F)F)cc2)c1NC(=O)OC(C)c1ccccc1 (stereo not shown) [Compound 35, 1-Phenylethyl N-[5-[4-(trifluoromethoxy)phenyl]-3-methyl-4-isoxazolyl]carbamate]
3 to 10	Cc1onc(-c2ccc(F)cc2)c1NC(=O)OC(C)c1ccccc1Cl (stereo not shown) [Compound 16, 1-(2-Chlorophenyl)ethyl N-[3-(4-fluorophenyl)-5-methyl-4-isoxazolyl]carbamate]
3	COCc1ccc(-c2onc(C)c2NC(=O)OC(C)c2ccccc2Cl)cc1 (stereo not shown) [Compound 87, 1-(2-Chlorophenyl)ethyl N-[5-[4-(methoxymethyl)phenyl]-3-methyl-4-isoxazolyl]carbamate]
3	Cc1noc(-c2ccc(OC(F)(F)F)cc2)c1NC(=O)O[C@H](C)c1ccccc1Br [Compound 44, (1R)-1-(2-Bromophenyl)ethyl N-[3-methyl-5-[4-(trifluoromethoxy)phenyl]-4-isoxazolyl]carbamate]
1 to 3	CCc1noc(-c2ccc(C#N)cc2)c1NC(=O)OC(C)c1ccccc1Cl (stereo not shown) [Compound 77, 1-(2-Chlorophenyl)ethyl N-[5-(4-cyanophenyl)-3-ethyl-4-isoxazolyl]carbamate]
1 to 3	Cc1noc(-c2ccc(Br)o2)c1NC(=O)OC(C)c1ccccc1Cl (stereo not shown) [Compound 73, 1-(2-Chlorophenyl)ethyl N-[5-(5-bromo-2-furyl)-3-methyl-4-isoxazolyl]carbamate]
1 to 3	Cc1onc(-c2ccccc2)c1NC(=O)OC(c1ccccc1)C(F)(F)F (stereo not shown) [Compound 80, 2,2,2-Trifluoro-1-phenylethyl N-(5-methyl-3-phenyl-4-isoxazolyl)carbamate]
1 to 3	Cc1noc(-c2ccc(C#N)cc2)c1NC(=O)OC(c1ccccc1)C(F)(F)F (stereo not shown) [Compound 86, 2,2,2-Trifluoro-1-phenylethyl N-[5-(4-cyanophenyl)-3-methyl-4-isoxazolyl]carbamate]

— patent US6964975B2, “Isoxazole and thiazole compounds and use thereof as medicine” (Kirin Beer Kabushiki Kaisha, priority 2000, dated 2005)
